#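 Following 48 hours of exposure in 96-well plates, responses at five concentrations were used to interpolate endpoints linearly. TGI marks complete inhibition of growth.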
# Experiments:
# Test in all cases: NCI tumour cell line growth inhibition, 48 h
# COLO 205 colon = system: COLO 205 colon
# HOP-18 NSCLC = system: HOP-18 NSCLC
# DMS 114 small cell lung = system: DMS 114 small cell lung
# DMS 273 small cell lung = system: DMS 273 small cell lung
# LXFL 529 NSCLC = system: LXFL 529 NSCLC
# SNB-78 CNS = system: SNB-78 CNS
# DLD-1 colon = system: DLD-1 colon
# M19-MEL melanoma = system: M19-MEL melanoma
# KM20L2 colon = system: KM20L2 colon
# XF 498 CNS = system: XF 498 CNS
# HCC-2998 colon = system: HCC-2998 colon
# RXF-631 renal = system: RXF-631 renal
# HS 578T breast = system: HS 578T breast
Compound,TGI (COLO 205 colon) [µM],TGI (HOP-18 NSCLC) [µM],TGI (DMS 114 small cell lung) [µM],TGI (DMS 273 small cell lung) [µM],TGI (LXFL 529 NSCLC) [µM],TGI (SNB-78 CNS) [µM],TGI (DLD-1 colon) [µM],TGI (M19-MEL melanoma) [µM],TGI (KM20L2 colon) [µM],TGI (XF 498 CNS) [µM],TGI (HCC-2998 colon) [µM],TGI (RXF-631 renal) [µM],TGI (HS 578T breast) [µM]
C/C(CC(=O)Nc1ccc([N+](=O)[O-])cc1)=N\NC(N)=O,> 100,> 100,> 62.6,> 100,> 100,> 100,> 100,> 100,> 100,> 100,> 100,,
NC(=O)N/N=C(\CC1OC(=O)c2ccccc21)c1ccco1 (stereo not given),> 100,> 100,> 100,> 100,> 100,,> 100,> 100,> 100,,> 100,> 100,
CC(=O)OC1COC(n2c(O)c(N=NC(N)=S)c3cc(Br)ccc32)C(OC(C)=O)C1OC(C)=O (stereo not given),> 100,> 100,> 100,> 100,> 100,> 100,> 100,> 100,> 100,> 100,> 100,,
CCOC(=O)NC(=O)c1cn(CCOC(=O)CCCCCCCCC(=O)OCCn2cc(C(=O)NC(=O)OCC)c(=O)[nH]c2=O)c(=O)[nH]c1=O,,> 100,> 100,> 100,> 100,> 100,> 100,> 100,> 100,> 100,> 100,> 100,
O=c1[nH]c2cc(Cl)ccc2nc1/C(=N\O)C(O)c1cccc([N+](=O)[O-])c1 (stereo not given),> 100,> 100,> 100,,> 100,,> 100,> 100,> 100,> 100,> 100,> 100,
CCCCNc1nc(C#N)c(N)s1,> 100,,,> 100,> 100,> 100,> 100,,> 100,> 100,> 100,> 100,
CNS(=O)(=O)NN(C)S(=O)(=O)c1ccccc1,> 100,,> 100,> 100,> 100,,> 100,> 100,> 100,,> 100,,
CC(=O)OCC1=C(CCC#N)N2C(=O)C(NC(=O)Cc3cccs3)C2S(=O)C1 (stereo not given),> 100,> 100,> 100,> 100,,> 100,> 100,> 100,> 100,> 100,> 100,,
NC1=C(NC(=O)Cc2ccc(F)cc2)C(=O)c2ccccc2C1=O,> 100,,27,> 100,> 100,65.1,> 71.4,45.4,> 100,> 100,> 100,> 100,
C[N+](C)(C)CC(=O)N/N=C/c1oc(-c2c(O)ccc3ccccc23)c(-c2c(O)ccc3ccccc23)c1[N+](=O)[O-],42.2,62.8,,,> 100,,54.6,60.8,36,55.5,34.3,,
COc1ccc2c3c1O[C@]1(C)C34CCN(C)C(C2)C42C=C[C@@]1(OC)c1c(O)ccc(O)c12,> 100,> 100,> 100,> 100,> 100,> 100,> 100,,> 100,> 100,> 100,,
CC1=NN(C(=O)c2ccccc2O)C(=O)/C1=C/c1ccco1,> 63.8,,6.94,,> 100,> 100,> 100,20,81,> 100,> 100,,
O=C(CSc1nnc(-c2ccc(N=Cc3ccc(Cl)cc3)cc2)o1)Nc1ccccc1[N+](=O)[O-],> 100,> 100,> 100,> 100,> 100,> 100,,> 100,> 100,> 100,,,
Cn1cc2ccccc2c1-c1nc(F)nc(F)n1,> 100,,> 100,> 100,> 100,> 100,> 100,> 100,> 100,90.6,> 100,,
C=Cc1ccc(C)[n+](C[Si](C)(C)O[Si](C)(C)C)c1,> 100,,> 100,> 100,> 100,> 100,> 100,,> 100,,> 100,> 100,
COC(=O)N/N=C(\Cc1ccccc1)CN(C)C,> 100,,> 100,> 100,> 100,> 100,> 100,> 100,> 100,> 100,> 100,> 100,
COC(=O)C(=O)C(C(=O)C(=O)Nc1ccc(F)cc1)c1nc2ccc([N+](=O)[O-])cc2[nH]c1=O (stereo not given),> 100,> 100,,,> 100,> 100,> 100,> 100,> 100,> 100,> 100,> 100,
COc1ccc(Nc2nnc(-c3nsc4ccccc34)s2)cc1,> 100,2.66,> 100,> 100,> 100,> 100,,> 100,> 100,,> 100,,> 100
C/C(=N\NS(=O)(=O)c1ccc(C)cc1)C(CN1CCCCC1)C(c1ccccc1)c1c(O)c2ccccc2oc1=O (stereo not given),> 100,> 100,,,> 100,> 100,> 100,,> 100,> 100,> 100,,
CCCCOC(=O)C1C2CCC(O2)C1C(=O)OCCCC (stereo not given),> 57.3,> 100,> 55.7,> 100,,> 100,> 87.5,> 100,> 81.2,> 100,> 100,,
COc1cc2c(oc(=O)c3c4oc([Si](C)(C)C)cc4cc(OC)c23)c2cccc(OCc3ccccc3)c12,> 100,63.8,> 100,72.8,> 61.8,91.6,> 100,> 100,> 100,27,> 100,,
c1ccc2c(c1)cc(C1NCCc3[nH]cnc31)c1ccccc12 (stereo not given),26.4,> 100,> 64.3,87.9,> 63.5,> 100,> 100,> 59.5,> 100,79,21.8,> 100,
C[C@]12CCC(=O)C=C1CC[C@@H]1[C@@H]2CC[C@]2(C)C(=O)NC(=O)C[C@@H]12,> 100,> 100,> 100,> 100,> 100,> 100,> 100,> 100,> 100,> 100,> 100,> 100,
